Where two headings read alike, the source gives them in different places.
How the values were obtained:
MOLM13-PGP cell line = assay: Cell viability assay, MOLM13-PGP; type: cell-based; parameters: unit of the concentration uncertain; conditions: 168 h, 7 days
Procedure: (§1) The effects described above were investigated in an AML cell line, MOLM-13, which carries a KA4T2A (MLL)-rearrangement mutation. The P-gp expressing MOLM-13 cell line (MOLM13-PGP) and the Luciferase expressing MOLM-13 cell line (MOLM13-Control) were established by lentivirally transducing P-gp ORF or Luciferase ORF. Cells were plated and treated with test compound for 7 days.

MV4;11-Control cell line = assay: CellTiter-Glo cell viability assay, MV4;11-Control; type: cell-based; parameters: unit of the concentration uncertain
Procedure: (§2) The influence of efflux pumps on the antitumor activity of the test compounds at steady state (more clinically relevant) were evaluated using P-gp-transfected AML cells (MV4;11 cells) in 6-day viability assays.
(§3) A P-gp-expressing KMT2A(MLL)-rearranged cell line model was developed by lentiviral transduction of the MV4;11 parental cell line and then selection for either Luciferase ORF (MV4;11-Control) or P-gp ORF (MV4;11-PGP).
(§4) […] Cell viability was measured by CellTiter-Glo® Luminescent Cell Viability Assay (CTG assay, Promega Corp.) and % Viability was quantified by normalizing to the luminescence values of DMSO-only treated cells. The dose-response curves and IC50's were calculated using GraphPad Prism 9.4.1.
(§5) The measured luminescence in the live cells of the MV4;11-Control and MV4;11-PGP cells that were treated with Compound I only (+DMSO), Compound I+posaconazole […], and valspodar (1 mM) are shown in FIGS. 5A and 5B.
(§6) In a second set of experiments, MV4;11-Control and MV4;11-PGP cell lines were treated as described above with five menin inhibitors, including Compound I, SNDX-5613, Compound A, Compound B, and Compound C, at concentrations ranging from 0 to 1000 nM. All tested compounds dropped in potency due to the P-gp expression as shown in FIGS. 6A-6J and in Tables 5 and 6 (indicated by increased IC50 values between “MV4;11-Control (Compound+DMSO)” and “MV4;11-PGP (Compound+DMSO)” entries).

[1] = test system: OCI-AML3-Control cell line; assay: Cell viability assay, OCI-AML3-Control; type: cell-based; parameters: unit of the concentration uncertain; conditions: 168 h, 7 days
Procedure: (§7) A third set of experiments was conducted in the cell line OCI-AML3, which carries the W288Cfs*12 mutation in NPM protein. The P-gp expressing OCI-AML3 cell line (OCI-AML3-PGP) and the Luciferase expressing OC-AML3 cell line (OCI-AML3-Control) were established by lentivirally transducing P-gp ORF or Luciferase ORF. Cells were treated with Compound I or SNDX-5613 for 7 days to assess the IC50 values.

MOLM13-Control cell line = assay: Cell viability assay, MOLM13-Control; type: cell-based; parameters: unit of the concentration uncertain; conditions: 168 h, 7 days
Procedure: as §1

MV4;11-PGP cell line = assay: CellTiter-Glo cell viability assay, MV4;11-PGP; type: cell-based; parameters: unit of the concentration uncertain
Procedure: as §2, §3, §4, §5, §6

P-gp = P-gp (Homo sapiens, UniProt P08183); assay: in vitro; conditions: MDCK-MDR1, pH 7.4
P-gp, sequence (P08183 whole entry): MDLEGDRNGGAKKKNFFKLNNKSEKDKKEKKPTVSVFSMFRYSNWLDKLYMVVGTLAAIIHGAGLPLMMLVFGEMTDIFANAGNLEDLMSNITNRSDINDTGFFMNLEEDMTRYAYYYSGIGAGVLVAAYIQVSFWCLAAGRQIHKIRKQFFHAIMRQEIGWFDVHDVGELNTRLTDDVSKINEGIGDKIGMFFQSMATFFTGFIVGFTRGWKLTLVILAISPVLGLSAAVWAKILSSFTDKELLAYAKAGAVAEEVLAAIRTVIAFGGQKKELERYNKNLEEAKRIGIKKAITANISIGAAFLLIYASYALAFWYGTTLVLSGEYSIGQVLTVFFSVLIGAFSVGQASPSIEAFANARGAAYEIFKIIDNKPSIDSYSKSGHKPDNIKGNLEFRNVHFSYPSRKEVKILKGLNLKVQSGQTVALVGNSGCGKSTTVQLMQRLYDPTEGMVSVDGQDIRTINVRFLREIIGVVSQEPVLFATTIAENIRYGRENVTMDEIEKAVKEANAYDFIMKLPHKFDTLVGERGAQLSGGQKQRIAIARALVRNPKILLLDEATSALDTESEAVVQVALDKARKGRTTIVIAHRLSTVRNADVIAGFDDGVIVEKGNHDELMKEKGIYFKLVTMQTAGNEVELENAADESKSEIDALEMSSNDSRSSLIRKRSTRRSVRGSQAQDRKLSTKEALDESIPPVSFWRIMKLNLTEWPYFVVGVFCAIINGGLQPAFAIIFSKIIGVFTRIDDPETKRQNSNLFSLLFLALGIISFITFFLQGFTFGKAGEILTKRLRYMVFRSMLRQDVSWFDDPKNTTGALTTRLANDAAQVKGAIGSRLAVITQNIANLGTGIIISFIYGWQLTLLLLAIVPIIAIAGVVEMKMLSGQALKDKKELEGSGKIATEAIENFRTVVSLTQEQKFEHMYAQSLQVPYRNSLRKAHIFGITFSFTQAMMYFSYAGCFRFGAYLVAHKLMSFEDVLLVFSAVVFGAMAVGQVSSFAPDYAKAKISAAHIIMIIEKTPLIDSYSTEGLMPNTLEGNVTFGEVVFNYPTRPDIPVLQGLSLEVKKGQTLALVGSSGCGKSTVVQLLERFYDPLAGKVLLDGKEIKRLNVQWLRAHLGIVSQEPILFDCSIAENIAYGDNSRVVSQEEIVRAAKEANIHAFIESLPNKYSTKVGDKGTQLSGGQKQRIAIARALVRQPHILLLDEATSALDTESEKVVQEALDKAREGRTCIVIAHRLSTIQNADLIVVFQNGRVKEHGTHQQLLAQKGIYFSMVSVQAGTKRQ
Procedure: MDCK epithelial cells stably transfected with the human MDR1 gene (the gene encoding for the efflux protein P-gp) were seeded on a Multiscreen™ plate (Millipore, MA, USA) and formed a confluent monolayer over 4 days prior to the experiment. To verify the MDR1-MDCK cell monolayers were properly formed, aliquots of the cell buffers were analyzed by fluorescence to determine the transport of the impermeable dye Lucifer Yellow. Any deviations from control values are reported.
MDR1-MDCK cells were incubated with these buffers for 2 h, and the receiver side buffer was removed for analysis by LC-MS/MS.
The rate of passage of the test compounds through this cell monolayer barrier from apical to basolateral (A→B) in this bi-directional transport assay was used to determine the apparent permeability coefficient (Papp). Receiver, donor, and dosing solution concentrations were quantified using a calibration curve prepared in transport buffer solution (pH 7.4). Papp is calculated as
where dQ/dt is rate of permeation, C0 is initial concentration of test agent, and A is the area of monolayer (0.11 cm^2). The basolateral to apical (B→A) to apical to basolateral (A→B) apparent permeability coefficient ratio
When RE>2 for a tested compound, the tested compound is a potential substrate for P-gp.
Rantinidine, talinolol, warfarin, and loperamide (±2 μM elacridar) were tested as reference compounds and each was tested at a concentration of 10 μM.

[2] = test system: MV4;11 parental cell line; assay: CellTiter-Glo cell viability assay, MV4;11 parental; type: cell-based; conditions: Homo sapiens, MV4-11, 144 h; Compound I only, 0 to 1000 nM, 6 days, Table 3
Procedure: as §2, §3
The MV4;11 parental, MV4;11-Control, and MV4;11-PGP cells were seeded on a 96-well plate and the cell lines were treated with Compound I at doses ranging from 0 to 1000 nM for 6 days. Cell viability was measured by CellTiter-Glo® Luminescent Cell Viability Assay (CTG assay, Promega Corp.) and % Viability was quantified by normalizing to the luminescence values of DMSO-only treated cells. The dose-response curves and IC50's were calculated using GraphPad Prism 9.4.1.

OCI-AML3-PGP cell line = assay: Cell viability assay, OCI-AML3-PGP; type: cell-based; parameters: unit of the concentration uncertain; conditions: 168 h, 7 days
Procedure: as §7

In the case of `CNc1nc(NC2CCN(Cc3ccc4c(cc(C#N)n4C[C@H](C)N4CCN(S(C)(=O)=O)CC4)c3C)CC2)c2cc(CC(F)(F)F)sc2n1` [Compound I], the IC50 (MOLM13-PGP cell line; Table 7, read-out: IC50 MOLM13-PGP (Compound + DMSO)) is reported as 65.7 nM, the IC50 (MOLM13-PGP cell line; Table 8, read-out: IC50 MOLM13-PGP (Compound + DMSO)) is reported as 63.2 nM and the IC50 (MOLM13-PGP cell line; posaconazole (1.5 (unit uncertain)), Table 7, read-out: IC50 MOLM13-PGP (Compound + posaconazole)) is reported as 19.2 nM. The IC50 (MOLM13-PGP cell line; valspodar (1 (unit uncertain)), Table 8, read-out: IC50 MOLM13-PGP (Compound + valspodar)) was 23 nM, the IC50 (MV4;11-Control cell line; 120 h, MV4;11-Control, 5 days, Table 4, read-out: IC50 (Compound I + DMSO)) was 7.2 nM and the IC50 (MV4;11-Control cell line; 120 h, MV4;11-Control, posaconazole (1.5 μM), 5 days, Table 4, read-out: IC50 (Compound I + Posaconazole)) was 3.8 nM. For the same molecule, the IC50 (MV4;11-Control cell line; 120 h, MV4;11-Control, valspodar (1 μM), 5 days, Table 4, read-out: IC50 (Compound I + Valspodar)) was 6.1 nM, the IC50 (MV4;11-Control cell line; 144 h, Compound I only, 0 to 1000 nM, 6 days, Table 3, read-out: IC50 MV4;11-Control) was 7.6 nM and the IC50 (MV4;11-Control cell line; 144 h, second set of experiments, 0 to 1000 nM, Table 5, read-out: IC50 MV4;11-Control (Compound + DMSO)) was 6.05 nM. For the same molecule, the IC50 (MV4;11-Control cell line; 144 h, second set of experiments, 0 to 1000 nM, Table 6, read-out: IC50 MV4;11-Control (Compound + DMSO)) was 6.14 nM, the IC50 (MV4;11-Control cell line; second set of experiments, posaconazole (1.5 (unit uncertain)), Table 5, read-out: IC50 MV4;11-Control (Compound + posaconazole)) was 3.76 nM and the IC50 (MV4;11-Control cell line; second set of experiments, valspodar (1 (unit uncertain)), Table 6, read-out: IC50 MV4;11-Control (Compound + valspodar)) was 4.84 nM. It also gave an IC50 ([1]; Table 9, read-out: IC50 OCI-AML3-Control (Compound + DMSO)) of 16.4 nM, an IC50 ([1]; Table 10, read-out: IC50 OCI-AML3-Control (Compound + DMSO)) of 15.3 nM and an IC50 ([1]; posaconazole (0.75 (unit uncertain)), Table 9, read-out: IC50 OCI-AML3-Control (Compound + posaconazole)) of 17.7 nM. It also gave an IC50 ([1]; valspodar (1 (unit uncertain)), Table 10, read-out: IC50 OCI-AML3-Control (Compound + valspodar)) of 19.2 nM, an IC50 (MOLM13-Control cell line; Table 7, read-out: IC50 MOLM13-Control (Compound + DMSO)) of 23.7 nM and an IC50 (MOLM13-Control cell line; Table 8, read-out: IC50 MOLM13-Control (compound + DMSO)) of 27 nM. The IC50 (MOLM13-Control cell line; posaconazole (1.5 (unit uncertain)), Table 7, read-out: IC50 MOLM13-Control (Compound + posaconazole)) was 16.5 nM, the IC50 (MOLM13-Control cell line; valspodar (1 (unit uncertain)), Table 8, read-out: IC50 MOLM13-Control (Compound + valspodar)) was 22.3 nM and the IC50 (MV4;11-PGP cell line; 120 h, MV4;11-PGP, 5 days, Table 4, read-out: IC50 (Compound I + DMSO)) was 33 nM. The IC50 (MV4;11-PGP cell line; 120 h, MV4;11-PGP, posaconazole (1.5 μM), 5 days, Table 4, read-out: IC50 (Compound I + Posaconazole)) was 7.1 nM, the IC50 (MV4;11-PGP cell line; 120 h, MV4;11-PGP, valspodar (1 μM), 5 days, Table 4, read-out: IC50 (Compound I + Valspodar)) was 4.7 nM and the IC50 (MV4;11-PGP cell line; 144 h, second set of experiments, 0 to 1000 nM, Table 5, read-out: IC50 MV4;11-PGP (Compound + DMSO)) was 19.1 nM. For the same molecule, the IC50 (MV4;11-PGP cell line; 144 h, second set of experiments, 0 to 1000 nM, Table 6, read-out: IC50 MV4;11-PGP (Compound + DMSO)) was 19.9 nM, the IC50 (MV4;11-PGP cell line; second set of experiments, posaconazole (1.5 (unit uncertain)), Table 5, read-out: IC50 MV4;11-PGP (Compound + posaconazole)) was 5.79 nM and the IC50 (MV4;11-PGP cell line; second set of experiments, valspodar (1 (unit uncertain)), Table 6, read-out: IC50 MV4;11-PGP (Compound + valspodar)) was 5.64 nM. For the same molecule, the Papp A→B at 2 h (P-gp) was 0.308 ×10⁻⁶ cm/s, the Papp B→A at 2 h (P-gp) was 1.84 ×10⁻⁶ cm/s and the IC50 [2] was 8.5 nM. It also gave an IC50 (OCI-AML3-PGP cell line; Table 9, read-out: IC50 OCI-AML3-PGP (Compound + DMSO)) of 38.9 nM, an IC50 (OCI-AML3-PGP cell line; Table 10, read-out: IC50 OCI-AML3-PGP (Compound + DMSO)) of 50.2 nM and an IC50 (OCI-AML3-PGP cell line; posaconazole (0.75 (unit uncertain)), Table 9, read-out: IC50 OCI-AML3-PGP (Compound + posaconazole)) of 19.2 nM. It also gave an IC50 (OCI-AML3-PGP cell line; valspodar (1 (unit uncertain)), Table 10, read-out: IC50 OCI-AML3-PGP (Compound + valspodar)) of 15.7 nM.

Reference: patent publication US20250152591A1, “TREATMENT OF HEMATOLOGICAL MALIGNANCIES WITH MENIN INHIBITORS AND P-GLYCOPROTEIN INHIBITORS” (Kura Oncology, Inc., priority 2022, published 2025)
